molecular target: Transient receptor potential cation channel subfamily V member 1 (Homo sapiens, UniProt Q8NER1); test: FLIPR (Fluorescence Imaging Plate Reader)-Based Ca2+ Assay; conditions: pH 7.2; 25 °C
Protocol: One day before the assay was performed, human TRPV1 expressed in 1321N1 astrocytoma cells were plated onto 96-well assay plates and grown until 2.5 h before the assay, and the cells were loaded with the Ca2+ reporter dye Fluo3-AM for 2 h at room temperature. After this, the cells were washed, and continuously being incubated for 30 min with medium containing test compounds at a range of different concentrations.

Chain of Transient receptor potential cation channel subfamily V member 1 (Q8NER1 whole entry): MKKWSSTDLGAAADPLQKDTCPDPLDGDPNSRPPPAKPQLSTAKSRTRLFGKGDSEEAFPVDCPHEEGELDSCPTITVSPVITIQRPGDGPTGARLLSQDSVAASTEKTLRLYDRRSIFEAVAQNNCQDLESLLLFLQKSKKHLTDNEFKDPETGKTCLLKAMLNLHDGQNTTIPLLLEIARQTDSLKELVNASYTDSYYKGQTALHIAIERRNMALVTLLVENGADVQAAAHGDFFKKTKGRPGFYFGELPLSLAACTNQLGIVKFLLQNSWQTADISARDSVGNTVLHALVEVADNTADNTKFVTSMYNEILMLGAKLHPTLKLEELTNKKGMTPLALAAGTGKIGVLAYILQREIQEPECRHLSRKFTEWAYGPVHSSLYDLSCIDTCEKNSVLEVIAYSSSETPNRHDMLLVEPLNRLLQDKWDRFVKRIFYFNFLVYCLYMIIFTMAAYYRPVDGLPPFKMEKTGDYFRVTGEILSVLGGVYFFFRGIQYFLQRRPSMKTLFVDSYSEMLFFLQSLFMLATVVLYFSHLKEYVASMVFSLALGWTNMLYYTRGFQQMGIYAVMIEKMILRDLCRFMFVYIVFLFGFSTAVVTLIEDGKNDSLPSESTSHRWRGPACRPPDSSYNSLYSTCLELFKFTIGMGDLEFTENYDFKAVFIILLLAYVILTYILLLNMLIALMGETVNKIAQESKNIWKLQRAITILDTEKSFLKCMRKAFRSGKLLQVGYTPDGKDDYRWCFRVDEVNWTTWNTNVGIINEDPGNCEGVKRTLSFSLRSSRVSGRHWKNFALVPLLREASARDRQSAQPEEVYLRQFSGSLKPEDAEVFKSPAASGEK

Row | EC50 [µM] | SMILES
1 | 0.016 | CCN(CCNC(=O)Nc1ccccc1Br)c1cccc(C)c1 [3-(2-bromophenyl)-1-{2-[ethyl(3-methylphenyl)amino]ethyl}urea]
2 | 0.02 | COc1cccc(NC(=O)/C=C/c2ccc(Cl)cc2)c1 [(2E)-3-(4-chlorophenyl)-N-(3-methoxyphenyl)prop-2-enamide]
3 | 0.032 | Oc1cc2c(cc1O)CN(C(=S)NCCc1ccc(Cl)cc1)CCC2 [N-[2-(4-chlorophenyl)ethyl]-7,8-dihydroxy-2,3,4,5-tetrahydro-1H-2-benzazepine-2-carbothioamide]

Reference: BindingDB's records for doi:10.1016/j.bmcl.2004.05.028 (Gsk, 2004)
